The assay deals with T1, PI3Kα H1047R (T47D cells) (Homo sapiens, UniProt P42336, H1047R).
T1 construct: endogenous in cells; host or cells: T47D cells
Briefly: PI3Kα cellular assay: pAKT HTRF in T47D cells after EGF stimulation. The class given is cell-based. The settings on record: for IC50: T47D cells (PI3Kα H1047R), pAKT S473 HTRF. The procedure: SKBR3 or T47D cells are seeded in DMEM containing 10% FBS at 25k cells/well into 96-well cell culture format. Cells are incubated overnight at 37° C. in a 5% CO2 incubator and the following day cell media is aspirated, adherent cells are washed 1× with room temperature PBS prior to serum-free media application. Cells are returned to 37° C. 5% CO2 incubator and incubated a further 16 hrs. Compounds are added to serum starved adherent cells with a top dose of 10,000 nM and 3× multiple dose reductions for a minimum dose of 0.5 nM diluted in DMSO. Cell/compound incubation continues for 1 hr in a 37° C., 5% CO2 incubator prior to 10 minute PIK3CA stimulation with 20 ng/ml EGF. Cells treated with 0.1% DMSO and 20 ng/mL EGF are employed as negative control, cells treated with 10 uM Alpelisib and 20 ng/mL EGF are employed as a positive control. After 10 mins, plates are removed from incubator and cells are lysed with buffer and shaking 45 minutes. […] 384 well plate is left overnight at room temperature before reading HTRF on an Envision plate reader.
ND denotes value not determined with that assay for the specified compound; • for T47D (H1047R) selectivity over SKBR3 (WT): A denotes >20-fold; B denotes 20-fold≥value>5-fold; C denotes ≤5-fold. ND denotes value not determined with that assay for the specified compound; and • for T47D pAKT lipophilic efficiency (LiPE): A denotes >4; B denotes 4≥value>2; C denotes ≤2. ND denotes value not determined with that assay for the specified compound.
On the technique in general: In TR-FRET formats the signal depends on donor and acceptor labels being close together.

The mark [1] stands for this setting: 1 hr compound, 20 ng/ml EGF 10 min.
The mark [2] stands for this setting: selectivity T47D (H1047R) over SKBR3 (WT), pAKT HTRF.
Where [3] appears, read: selectivity of T47D (H1047R) over SKBR3 (WT) pAKT IC50.

As a reminder, the IC50 is the concentration needed to halve the response being measured. A high value points to lower potency.

T1 sequence (P42336 whole entry H1047R): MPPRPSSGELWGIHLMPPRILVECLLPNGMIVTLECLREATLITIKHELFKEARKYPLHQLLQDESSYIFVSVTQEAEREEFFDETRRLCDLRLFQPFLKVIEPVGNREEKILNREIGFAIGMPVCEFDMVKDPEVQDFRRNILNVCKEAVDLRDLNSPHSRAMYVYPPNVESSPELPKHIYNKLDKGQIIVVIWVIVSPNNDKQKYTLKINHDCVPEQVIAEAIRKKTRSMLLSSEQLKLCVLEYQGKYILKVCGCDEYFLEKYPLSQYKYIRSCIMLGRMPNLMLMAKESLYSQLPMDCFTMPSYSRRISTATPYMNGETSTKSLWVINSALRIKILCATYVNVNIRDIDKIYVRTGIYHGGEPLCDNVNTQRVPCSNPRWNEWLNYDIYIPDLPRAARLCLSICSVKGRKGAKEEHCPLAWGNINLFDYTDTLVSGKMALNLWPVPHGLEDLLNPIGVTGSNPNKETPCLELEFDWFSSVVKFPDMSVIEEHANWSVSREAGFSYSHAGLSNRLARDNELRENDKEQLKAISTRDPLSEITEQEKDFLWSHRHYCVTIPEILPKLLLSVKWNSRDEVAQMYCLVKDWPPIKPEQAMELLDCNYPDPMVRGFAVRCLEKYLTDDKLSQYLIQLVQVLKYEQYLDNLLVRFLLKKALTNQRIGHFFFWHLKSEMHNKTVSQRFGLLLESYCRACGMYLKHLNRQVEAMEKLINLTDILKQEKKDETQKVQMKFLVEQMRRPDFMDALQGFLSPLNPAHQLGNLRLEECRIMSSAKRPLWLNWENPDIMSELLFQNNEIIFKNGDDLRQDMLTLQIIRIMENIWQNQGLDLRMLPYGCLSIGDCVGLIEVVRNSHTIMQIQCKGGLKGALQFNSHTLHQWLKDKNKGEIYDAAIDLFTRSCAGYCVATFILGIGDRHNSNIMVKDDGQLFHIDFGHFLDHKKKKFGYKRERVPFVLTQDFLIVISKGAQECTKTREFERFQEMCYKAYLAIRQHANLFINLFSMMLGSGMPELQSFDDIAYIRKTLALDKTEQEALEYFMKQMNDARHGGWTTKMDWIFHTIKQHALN
T1 sequence (P27986 whole entry partner): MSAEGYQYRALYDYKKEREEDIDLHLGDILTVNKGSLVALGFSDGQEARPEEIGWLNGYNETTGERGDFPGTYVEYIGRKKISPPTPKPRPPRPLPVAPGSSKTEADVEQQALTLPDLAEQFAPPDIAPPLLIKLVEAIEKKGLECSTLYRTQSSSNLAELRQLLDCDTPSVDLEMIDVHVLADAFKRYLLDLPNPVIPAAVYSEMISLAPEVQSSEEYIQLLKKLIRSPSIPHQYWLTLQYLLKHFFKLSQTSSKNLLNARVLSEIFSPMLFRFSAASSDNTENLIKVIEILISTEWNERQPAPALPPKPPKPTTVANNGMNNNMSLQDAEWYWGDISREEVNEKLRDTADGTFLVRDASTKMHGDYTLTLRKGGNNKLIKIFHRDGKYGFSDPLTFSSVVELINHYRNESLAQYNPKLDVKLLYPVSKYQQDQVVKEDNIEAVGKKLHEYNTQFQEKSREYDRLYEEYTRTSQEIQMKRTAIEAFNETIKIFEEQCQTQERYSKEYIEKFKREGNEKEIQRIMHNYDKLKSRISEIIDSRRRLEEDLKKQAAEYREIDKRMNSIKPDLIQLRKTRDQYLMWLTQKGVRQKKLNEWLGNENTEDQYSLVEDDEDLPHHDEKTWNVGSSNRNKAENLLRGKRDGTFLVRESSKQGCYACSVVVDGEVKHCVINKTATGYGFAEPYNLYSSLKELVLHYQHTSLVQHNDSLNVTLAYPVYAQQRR

In turn, `Cc1cc([C@@H](C)Nc2ccccc2)c2nc(-c3cc(C)c4oc(=O)[nH]c4c3)cc(=O)n2c1` (single isomer, unassigned) [Compound 29] registered an IC50 under setting [1] greater than 2000 nM. Further, the “T47D pAKT S473 HTRF IC50 (H1047R): T47D (H1047R) selectivity over SKBR3 (WT)” value under setting [2] is “C (C denotes ≤5-fold)”. In the case of `Cc1cc(C(C)Nc2ccccc2C(=O)O)c2nc(-c3ccncc3)cc(=O)n2c1` (single isomer, unassigned) [Compound 268], the IC50 under setting [1] was greater than 2000 nM. For the same molecule, the “T47D pAKT S473 HTRF IC50 (H1047R): T47D (H1047R) selectivity over SKBR3 (WT)” value under setting [2] was “C (C denotes ≤5-fold)”. For `Cc1cc(C(C)Nc2ccccc2C(=O)O)c2nc(-c3ccncc3)cc(=O)n2c1` (single isomer, unassigned) [Compound 269], in that order: less than 100 nM and “A (A denotes >20-fold)”.

As for `Cc1cc([C@H](C)Nc2ccccc2C(=O)O)c2nc(N3Cc4ccccc4C3)cc(=O)n2c1` (single isomer, unassigned) [Compound 393], the concentration for half-maximal inhibition (IC50) under setting [1] was less than 100 nM. Besides, the “T47D pAKT S473 HTRF IC50 (H1047R): T47D (H1047R) selectivity over SKBR3 (WT)” value under setting [2] was “A (A denotes >20-fold)”. In the case of `Cc1cc(C(C)Nc2ccccc2C(=O)O)c2nc(-c3ccc(CN4CCN(C(=O)C5CC5)CC4)c(F)c3)cc(=O)n2c1` (single isomer, unassigned) [Compound 420], the IC50 under setting [1] lay within 100 to 500 nM. Besides, the “T47D pAKT S473 HTRF IC50 (H1047R): T47D (H1047R) selectivity over SKBR3 (WT)” value under setting [2] was “A (A denotes >20-fold)”. For `Cc1cc(C(C)Nc2ccccc2C(=O)O)c2nc(-c3ccc(CN4CCN(C(=O)C5CC5)CC4)c(F)c3)cc(=O)n2c1` (single isomer, unassigned) [Compound 421], in that order: greater than 2000 nM and “C (C denotes ≤5-fold)”.

On to `Cc1cc([C@@H](C)Nc2ccccc2C(=O)O)c2nc(-c3ccc(F)cc3)cc(=O)n2c1` (single isomer, unassigned) [Compound 424], for which, under setting [1], the IC50 was less than 100 nM. In addition, under setting [2], the “T47D pAKT S473 HTRF IC50 (H1047R): T47D (H1047R) selectivity over SKBR3 (WT)” value is recorded as “A (A denotes >20-fold)”.

In the case of `Cc1cc([C@@H](C)Nc2ccccc2C(=O)O)c2nc(N3CC[Si](C)(C)CC3)cc(=O)n2c1` (single isomer, unassigned) [Compound 431], the IC50 under setting [1] was less than 100 nM. Besides, the “T47D pAKT S473 HTRF IC50 (H1047R): T47D (H1047R) selectivity over SKBR3 (WT)” value under setting [2] is reported as “A (A denotes >20-fold)”. For `Cc1cc(C(C)Nc2ccccc2C(N)=O)c2nc(-c3ccncc3)cc(=O)n2c1` (single isomer, unassigned) [Compound 439], the half-inhibitory concentration (IC50) under setting [1] was greater than 2000 nM. The “T47D pAKT S473 HTRF IC50 (H1047R): T47D (H1047R) selectivity over SKBR3 (WT)” value under setting [2] is “C (C denotes ≤5-fold)”.

In turn, `Cc1cc([C@H](C)Nc2ccccc2C(N)=O)c2nc(-c3ccncc3)cc(=O)n2c1` (single isomer, unassigned) [Compound 440] registered an IC50 under setting [1] of 500 to 2000 nM. For the same molecule, the “T47D pAKT S473 HTRF IC50 (H1047R): T47D (H1047R) selectivity over SKBR3 (WT)” value under setting [2] is recorded as “B (B denotes 20-fold≥value>5-fold)”.

Under setting [1], `Cc1cc([C@@H](C)Nc2ccccc2C(=O)O)c2nc(N3C[C@H](C)C[C@H](C)C3)cc(=O)n2c1` (single isomer, unassigned) [Compound 512] showed an IC50 of less than 100 nM. Moreover, the “T47D pAKT S473 HTRF IC50 (H1047R): T47D (H1047R) selectivity over SKBR3 (WT)” value under setting [2] is listed as “A (A denotes >20-fold)”. Take `Cc1cc(C(C)Nc2ccccc2C(=O)O)c2nc(-c3ccc4c(c3)c(N)nn4C)cc(=O)n2c1` (single isomer, unassigned) [Compound 535]: the IC50 under setting [1] is greater than 2000 nM. For the same molecule, the “T47D pAKT S473 HTRF IC50 (H1047R): T47D (H1047R) selectivity over SKBR3 (WT)” value under setting [2] is recorded as “C (C denotes ≤5-fold)”. For `Cc1cc([C@H](C)Nc2ccccc2C(=O)O)c2nc(-c3ccc4c(c3)c(N)nn4C)cc(=O)n2c1` (single isomer, unassigned) [Compound 536] the same measures were less than 100 nM and “A (A denotes >20-fold)”.

With `Cc1cc([C@@H](C)Nc2ccccc2C(=O)O)c2nc(N3C[C@@H]4CC(F)(F)C[C@@H]4C3)cc(=O)n2c1` (single isomer, unassigned) [Compound 582], the IC50 under setting [1] was greater than 2000 nM. In addition, under setting [2], the “T47D pAKT S473 HTRF IC50 (H1047R): T47D (H1047R) selectivity over SKBR3 (WT)” value is listed as “C (C denotes ≤5-fold)”. For `Cc1cc([C@H](C)Nc2ccccc2C(=O)O)c2nc(N3C[C@@H]4CC(F)(F)C[C@@H]4C3)cc(=O)n2c1` (single isomer, unassigned) [Compound 583] the same measures were less than 100 nM and “A (A denotes >20-fold)”. For `Cc1cc([C@@H](C)Nc2ccccc2C(=O)O)c2nc(-c3ccc4sc(=O)[nH]c4c3)cc(=O)n2c1` (single isomer, unassigned) [Compound 593], the IC50 under setting [1] was less than 100 nM. Also, the “T47D pAKT S473 HTRF IC50 (H1047R): T47D (H1047R) selectivity over SKBR3 (WT)” value under setting [2] is listed as “A (A denotes >20-fold)”. Under setting [1], `Cc1cc([C@H](C)Nc2ccccc2S(N)(=O)=O)c2nc(N3Cc4ccccc4C3)cc(=O)n2c1` (single isomer, unassigned) [Compound 606] displayed an IC50 greater than 2000 nM. In addition, the “T47D pAKT S473 HTRF IC50 (H1047R): T47D (H1047R) selectivity over SKBR3 (WT)” value under setting [2] is recorded as “C (C denotes ≤5-fold)”. For `Cc1cc([C@@H](C)Nc2ccccc2C(N)=O)c2nc(N3Cc4ccccc4C3)cc(=O)n2c1` (single isomer, unassigned) [Compound 620] the same measures were less than 100 nM and “A (A denotes >20-fold)”.

For `Cc1cc([C@@H](C)Nc2ccccc2C(=O)O)c2nc(C3Cc4ccccc4[C@@H]3C)cc(=O)n2c1` (single isomer, unassigned) [Compound 652], under setting [3], the “T47D pAKT S473 HTRF IC50 (H1047R): T47D (H1047R) selectivity over SKBR3 (WT)” value was “A (A denotes >20-fold)”. For the setting “EGF stimulation”, `Cc1cc([C@@H](C)Nc2ccccc2C(=O)O)c2nc(N3Cc4ccccc4[C@@H]3C)cc(=O)n2c1` (single isomer, unassigned) [Compound 652] registered an IC50 of less than 100 nM. Where the note is “EGF stimulation”, `Cc1cc([C@@H](C)Nc2ccccc2C(=O)O)c2nc(-c3cnc4c(c3)c(C)nn4C)cc(=O)n2c1` (single isomer, unassigned) [Compound 696] displayed an IC50 of less than 100 nM. In addition, the “T47D pAKT S473 HTRF IC50 (H1047R): T47D (H1047R) selectivity over SKBR3 (WT)” value under setting [3] is “A (A denotes >20-fold)”.

On to `Cc1cc([C@@H](C)Nc2ccccc2C(=O)O)c2nc(N3C[C@@H](C)C(F)(F)[C@@H](C)C3)cc(=O)n2c1` (single isomer, unassigned) [Compound 711], for which the IC50 (EGF stimulation) was less than 100 nM. The “T47D pAKT S473 HTRF IC50 (H1047R): T47D (H1047R) selectivity over SKBR3 (WT)” value under setting [3] is “A (A denotes >20-fold)”. For the setting “EGF stimulation”, `Cc1cc([C@@H](C)Nc2ccccc2S(N)(=O)=O)c2nc(N3C[C@@H](C)O[C@@H](C)C3)cc(=O)n2c1` (single isomer, unassigned) [Compound 730] had a half-maximal inhibitory concentration (IC50) of less than 100 nM. The “T47D pAKT S473 HTRF IC50 (H1047R): T47D (H1047R) selectivity over SKBR3 (WT)” value under setting [3] is “A (A denotes >20-fold)”.

For the molecule `Cc1cc([C@@H](C)Nc2ccccc2C(=O)O)c2nc(-c3ccc4c(c3)c(C)nn4C)cc(=O)n2c1` (single isomer, unassigned) [Compound 739], the IC50 (EGF stimulation) is greater than 2000 nM. For the same molecule, the “T47D pAKT S473 HTRF IC50 (H1047R): T47D (H1047R) selectivity over SKBR3 (WT)” value under setting [3] is listed as “C (C denotes ≤5-fold)”. For `Cc1cc([C@H](C)Nc2ccccc2C(=O)O)c2nc(-c3ccc4c(c3)c(C)nn4C)cc(=O)n2c1` (single isomer, unassigned) [Compound 740], in that order: less than 100 nM and “A (A denotes >20-fold)”.

The molecule `Cc1cc([C@@H](C)Nc2ccccc2C(=O)O)c2nc(-c3cnc4c(c3)c(C)c(C)n4C)c(C)c(=O)n2c1` (single isomer, unassigned) [Compound 804] came in with an IC50 (EGF stimulation) of less than 100 nM. In addition, under setting [3], the “T47D pAKT S473 HTRF IC50 (H1047R): T47D (H1047R) selectivity over SKBR3 (WT)” value was “A (A denotes >20-fold)”.

The record behind these values is patent publication US20260132129A1 (Genesis Therapeutics, Inc., priority 2022, published 2026).
